Experiments:
Assay in all cases: MIC, broth microdilution (CLSI), substance alone or ATB combined with compound at 4 or 8 μg/mL
[1] = system: ECO 190317; format: cell-based, E. coli; conditions: ECO 190317; for MIC ATB combined with Example: Example @4 μg/ml
Summary of the method: (§1)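 Per CLSI-M7-A7, MICs are determined in cation-adjusted Mueller-Hinton broth with a final inoculum of 5·10^5 CFU/mL. Plates incubate 16-20 h at 35° C in air and are read by eye. Fosfomycin assays carry 25 μg/ml glucose-6-phosphate.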

[2] = system: ECO UFR39; format: cell-based, E. coli; conditions: ECO UFR39; for MIC ATB combined with Example: Example @4 μg/ml; for MIC ATB combined with Example compound: compound @4 μg/ml
Summary of the method: as §1

[3] = system: KPN 6299; format: cell-based, K. pneumoniae; conditions: for MIC ATB combined with Example: Example @4 μg/ml
Summary of the method: as §1

[4] = system: KPN BAA-1898; format: cell-based, K. pneumoniae; conditions: KPN BAA-1898; for MIC ATB combined with Example: Example @4 μg/ml
Summary of the method: as §1

[5] = system: KPN UFR42; format: cell-based, K. pneumoniae; conditions: KPN UFR42; for MIC ATB combined with Example: Example @4 μg/ml; for MIC ATB combined with Example compound: compound @4 μg/ml
Summary of the method: as §1

[6] = system: ECL P99; format: cell-based, E. cloacae; conditions: ECL P99; for MIC ATB combined with Example: Example @4 μg/ml
Summary of the method: as §1

[7] = system: PAE 105250; format: cell-based, P. aeruginosa; conditions: PAE 105250; for MIC ATB combined with Example: Example @4 μg/ml; for MIC ATB combined with Example compound: compound @4 μg/ml
Summary of the method: as §1

[8] = system: PAE UFR48; format: cell-based, P. aeruginosa; conditions: PAE UFR48; for MIC ATB combined with Example: Example @4 μg/ml; for MIC ATB combined with Example compound: compound @4 μg/ml
Summary of the method: as §1

[9] = system: PAE UFR90; format: cell-based, P. aeruginosa; conditions: PAE UFR90; for MIC ATB combined with Example: Example @4 μg/ml; for MIC ATB combined with Example compound: compound @4 μg/ml
Summary of the method: as §1

[10] = system: SAU 29213; format: cell-based, S. aureus; conditions: for MIC ATB combined with Example / MIC ATB combined with Example compound: SAU 29213; for MIC ATB combined with Example: Example @4 μg/ml; for MIC ATB combined with Example compound: compound @4 μg/ml
Summary of the method: as §1

[11] = system: SPN 49619; format: cell-based, S. pneumoniae; conditions: SPN 49619; for MIC ATB combined with Example: Example @4 μg/ml; for MIC ATB combined with Example compound: compound @4 μg/ml
Summary of the method: as §1

[12] = system: ABA 19606; format: cell-based, A. baumannii; conditions: Acinetobacter baumannii, substance alone, read-out: MIC
Summary of the method: as §1

[13] = system: ABA UFR159; format: cell-based, A. baumannii; conditions: Acinetobacter baumannii, substance alone, read-out: MIC
Summary of the method: as §1

[14] = Escherichia coli, substance alone, read-out: MIC
[15] = Pseudomonas aeruginosa, substance alone, read-out: MIC

Question: What does the source list for `O=C1N2CC(n3cccn3)=C[C@H](C2)N1OS(=O)(=O)[O-].[Na+]` [Example 15, sodium [(5R)-7-oxo-3-pyrazol-1-yl-1,6-diazabicyclo[3.2.1]oct-3-en-6-yl] sulfate]?
Answer: MIC ATB combined with Example ([1]; ATB ATM): <0.031 µg/mL; MIC ATB combined with Example ([1]; ATB FEP): <0.031 µg/mL; MIC ATB combined with Example ([1]; ATB FOS): <0.125 µg/mL; MIC ATB combined with Example ([1]; ATB MEM): <0.031 µg/mL; MIC ATB combined with Example ([1]; ATB PIP): <0.031 µg/mL; MIC [1, 14]: 1 µg/mL; MIC ATB combined with Example compound ([1]; MIC of CIP, compound @4 μg/ml): <0.031 µg/mL; MIC ATB combined with Example ([2]; ATB ATM): <0.031 µg/mL; MIC ATB combined with Example ([2]; ATB FEP): <0.031 µg/mL; MIC ATB combined with Example ([2]; ATB FOS): <=0.125 μg/mL; MIC ATB combined with Example ([2]; ATB MEM): <0.031 µg/mL; MIC ATB combined with Example ([2]; ATB PIP): <0.031 µg/mL; MIC [2, 14]: 2 µg/mL; MIC ATB combined with Example compound ([2]; MIC of CIP): <=0.031 μg/mL; MIC ATB combined with Example compound ([2]; MIC of CPO): <=0.031 μg/mL; MIC ATB combined with Example ([3]; ATB ATM): <0.031 µg/mL; MIC ATB combined with Example ([3]; ATB FEP): <=0.25 μg/mL; MIC ATB combined with Example ([3]; ATB FOS): <=0.125 μg/mL; MIC ATB combined with Example ([3]; ATB MEM): <0.031 µg/mL; MIC ATB combined with Example ([3]; ATB PIP): <0.031 µg/mL; MIC ATB combined with Example compound ([3]; MIC of CIP, compound @4 μg/ml): 0.063 µg/mL; MIC ATB combined with Example ([4]; ATB ATM): <0.031 µg/mL; MIC ATB combined with Example ([4]; ATB FEP): <0.031 µg/mL; MIC ATB combined with Example ([4]; ATB FOS): 0.25 µg/mL; MIC ATB combined with Example ([4]; ATB MEM): <0.031 µg/mL; MIC ATB combined with Example ([4]; ATB PIP): <0.031 µg/mL; MIC ([4]; Klebsiella pneumoniae, BAA1898, substance alone, read-out: MIC): 4 µg/mL; MIC ATB combined with Example compound ([4]; MIC of CIP, compound @4 μg/ml): <=0.031 μg/mL; MIC ATB combined with Example ([5]; ATB ATM): <0.031 µg/mL; MIC ATB combined with Example ([5]; ATB FEP): <0.031 µg/mL; MIC ATB combined with Example ([5]; ATB FOS): <=0.125 μg/mL; MIC ATB combined with Example ([5]; ATB MEM): <0.031 µg/mL; MIC ATB combined with Example ([5]; ATB PIP): <0.031 µg/mL; MIC ([5]; Klebsiella pneumoniae, substance alone, read-out: MIC): 4 µg/mL; MIC ATB combined with Example compound ([5]; MIC of CIP): >32 µg/mL; MIC ATB combined with Example compound ([5]; MIC of CPO): <=0.031 μg/mL; MIC ATB combined with Example ([6]; ATB ATM): <0.031 µg/mL; MIC ATB combined with Example ([6]; ATB FEP): <0.031 µg/mL; MIC ATB combined with Example ([6]; ATB FOS): <=0.125 μg/mL; MIC ATB combined with Example ([6]; ATB MEM): <0.031 µg/mL; MIC ATB combined with Example ([6]; ATB PIP): <0.031 µg/mL; MIC ([6]; Enterobacter cloacae, substance alone, read-out: MIC): 2 µg/mL; MIC ATB combined with Example compound ([6]; MIC of CIP, compound @4 μg/ml): <=0.031 μg/mL; MIC ATB combined with Example ([7]; ATB ATM): 8 µg/mL; MIC ATB combined with Example ([7]; ATB FEP): 8 µg/mL; MIC ATB combined with Example ([7]; ATB FOS): >128 µg/mL; MIC ATB combined with Example ([7]; ATB MEM): 2 µg/mL; MIC ATB combined with Example ([7]; ATB PIP): 32 µg/mL; MIC ATB combined with Example compound ([7]; MIC of CIP): 0.125 µg/mL; MIC ATB combined with Example compound ([7]; MIC of CPO): 16 µg/mL; MIC [7, 15]: > 32 µg/mL; MIC ATB combined with Example ([8]; ATB ATM): 8 µg/mL; MIC ATB combined with Example ([8]; ATB FEP): 32 µg/mL; MIC ATB combined with Example ([8]; ATB FOS): 32 µg/mL; MIC ATB combined with Example ([8]; ATB MEM): 0.5 µg/mL; MIC ATB combined with Example ([8]; ATB PIP): 32 µg/mL; MIC ATB combined with Example compound ([8]; MIC of CIP): 4 µg/mL; MIC ATB combined with Example compound ([8]; MIC of CPO): >32 µg/mL; MIC [8, 15]: > 32 µg/mL; MIC ATB combined with Example ([9]; ATB ATM): 4 µg/mL; MIC ATB combined with Example ([9]; ATB FEP): 2 µg/mL; MIC ATB combined with Example ([9]; ATB FOS): 8 µg/mL; MIC ATB combined with Example ([9]; ATB MEM): 1 µg/mL; MIC ATB combined with Example ([9]; ATB PIP): 16 µg/mL; MIC ATB combined with Example compound ([9]; MIC of CIP): 1 µg/mL; MIC ATB combined with Example compound ([9]; MIC of CPO): 4 µg/mL; MIC [9, 15]: > 32 µg/mL; MIC ATB combined with Example ([10]; ATB ATM): >32 µg/mL; MIC ATB combined with Example ([10]; ATB FEP): 0.5 µg/mL; MIC ATB combined with Example ([10]; ATB FOS): 0.25 µg/mL; MIC ATB combined with Example ([10]; ATB MEM): <=0.031 μg/mL; MIC ATB combined with Example ([10]; ATB PIP): 0.5 µg/mL; MIC ATB combined with Example compound ([10]; MIC of CIP): <=0.031 μg/mL; MIC ATB combined with Example compound ([10]; MIC of CLI): <0.0010 µg/mL; MIC ATB combined with Example compound ([10]; MIC of CPO): 0.063 µg/mL; MIC ATB combined with Example compound ([10]; MIC of DAP): <=0.0020 μg/mL; MIC ATB combined with Example compound ([10]; MIC of ERY): <0.0020 µg/mL; MIC ATB combined with Example compound ([10]; MIC of LZD): 0.016 µg/mL; MIC ATB combined with Example compound ([10]; MIC of RIF): 0.0039 µg/mL; MIC ATB combined with Example compound ([10]; MIC of SYN): 0.063 µg/mL; MIC ATB combined with Example compound ([10]; MIC of VAN): 0.5 µg/mL; MIC ([10]; Staphylococcus aureus, substance alone, SAU 29213 (MSSA 29213), read-out: MIC): 4 µg/mL; MIC ATB combined with Example ([11]; ATB ATM): >32 µg/mL; MIC ATB combined with Example ([11]; ATB FEP): 0.063 µg/mL; MIC ATB combined with Example ([11]; ATB FOS): 16 µg/mL; MIC ATB combined with Example ([11]; ATB MEM): <=0.031 μg/mL; MIC ATB combined with Example ([11]; ATB PIP): 0.5 µg/mL; MIC ATB combined with Example compound ([11]; MIC of CIP): 0.25 µg/mL; MIC ATB combined with Example compound ([11]; MIC of CLI): 0.031 µg/mL; MIC ATB combined with Example compound ([11]; MIC of CPO): <=0.031 μg/mL; MIC ATB combined with Example compound ([11]; MIC of DAP): 0.125 µg/mL; MIC ATB combined with Example compound ([11]; MIC of ERY): 0.063 µg/mL; MIC ATB combined with Example compound ([11]; MIC of LZD): 0.25 µg/mL; MIC ATB combined with Example compound ([11]; MIC of RIF): 0.0078 µg/mL; MIC ATB combined with Example compound ([11]; MIC of SYN): 0.5 µg/mL; MIC ATB combined with Example compound ([11]; MIC of VAN): 0.125 µg/mL; MIC ([11]; Streptococcus pneumoniae, substance alone, read-out: MIC): 8 µg/mL; MIC [12]: > 32 µg/mL; MIC [13]: > 32 µg/mL

— patent US20200024278A1, “COMPOSITION COMPRISING ANTIBIOTIC COMPOUND AND AN HETEROCYCLIC COMPOUND AND THEIR USE IN PREVENTING OR TREATING BACTERIAL INFECTIONS” (MUTABILIS, priority 2016, published 2020)
